Laboratory results published in patent publication EP1208096B1, “SUBSTITUTED PYRIDAZINES AND FUSED PYRIDAZINES WITH ANGIOGENESIS INHIBITING ACTIVITY” (Bayer Corporation, priority 1999, dated 2001).

Target: T1, NIH3T3 cells expressing the full length KDR receptor (Homo sapiens, UniProt P35968)
T1 construct: NIH3T3 cells expressing the full length KDR receptor; expressed in transfected cells; host or cells: NIH3T3 cells (G418 selection)
Experiment: Cell mechanistic assay - Inhibition of 3T3 KDR phosphorylation
Format: cell-based
Settings: VEGF (30 ng / ml) for 10 minutes after 30 minutes with compound; KDR phosphotyrosine ELISA
Experimental: NIH3T3 cells expressing the full length KDR receptor were grown in DMEM (Life Technologies, Inc., Grand Island, NY) supplemented with 10% newborn calf serum, low glucose, 25 mM /L sodium pyruvate, pyridoxine hydrochloride and 0.2 mg/ ml of G418 (Life Technologies Inc., Grand Island, NY). The cells were maintained in collagen I-coated T75 flasks (Becton Dickinson Labware, Bedford, MA) in a humidified 5% CO2 atmosphere at 37°C.
Fifteen thousand cells were plated into each well of a collagen I-coated 96-well plate in the DMEM growth medium. Six hours later, the cells were washed and the medium was replaced with DMEM without serum. After overnight culture to quiesce the cells, the medium was replaced by Dulbecco's phosphate-buffered saline (Life Technologies Inc., Grand Island, NY) with 0.1% bovine albumin (Sigma Chemical Co., St Louis, MO). After adding various concentrations (0-300 nM) of test compounds to the cells in 1% final concentration of DMSO, the cells were incubated at room temperature for 30 minutes. The cells were then treated with VEGF (30 ng / ml) for 10 minutes at room temperature. Following VEGF stimulation, the buffer was removed and the cells were lysed by addition of 150 µl of extraction buffer (50 mM Tris, pH 7.8, supplemented with 10% glycerol, 50 mM BGP, 2 mM EDTA, 10 mM NaF, 0.5 mM NaVO4, and 0.3% TX-100) at 4°C for 30 minutes.
To assess receptor phosphorylation, 100 microliters of each cell lysate was added to the wells of an ELISA plate precoated with 300 ng of antibody C20 (Santa Cruz Biotechnology, Inc., Santa Cruz , CA). Following a 60-minute incubation, the plate was washed and bound KDR was probed for phosphotyrosine using an anti-phosphotyrosine mAb clone 4G10 (Upstate Biotechnology, Lake Placid, NY). The plate was washed and wells were incubated with anti-mouse IgG/HRP conjugate (Amersham International plc, Buckinghamshire, England) for 60 minutes. Wells were washed and phosphotyrosine was quantitated by addtion of 100 µl per well of 3,3',5,5' tetramethylbenzidine (Kirkegaard and Perry, TMB Microwell 1 Component peroxidase substrate) solution. Color development was arrested by the addition of 100 µl 1% HCl based stop solution (Kirkegaard and Perry, TMB 1 Component Stop Solution).
Optical densities (OD) were determined spectrophotometrically at 450 nm in a 96-well plate reader (SpectraMax 250, Molecular Devices). Background (no VEGF added) OD values were subtracted from all ODs and percent inhibition was calculated according to the equation: % Inhibition =((OD(VEGF control) - OD(with test compound)) X 100)/(OD(VEGF control) - OD(no VEGF added)) [formula]
IC50s were determined with a least squares analysis program using compound concentration versus percent inhibition. Compounds that have IC50 < 20 nM in this assay include those of Examples 2, 6, 7, 11, 15 and 16. Compounds that have IC50 values between 20 nM and 50 nM include those of examples 1, 4, 5, 8, 10, 12, 13 and 14. Those that have measured IC50 values > 50 nM include those of examples 9 and 21.

T1 sequence (P35968 20-1356): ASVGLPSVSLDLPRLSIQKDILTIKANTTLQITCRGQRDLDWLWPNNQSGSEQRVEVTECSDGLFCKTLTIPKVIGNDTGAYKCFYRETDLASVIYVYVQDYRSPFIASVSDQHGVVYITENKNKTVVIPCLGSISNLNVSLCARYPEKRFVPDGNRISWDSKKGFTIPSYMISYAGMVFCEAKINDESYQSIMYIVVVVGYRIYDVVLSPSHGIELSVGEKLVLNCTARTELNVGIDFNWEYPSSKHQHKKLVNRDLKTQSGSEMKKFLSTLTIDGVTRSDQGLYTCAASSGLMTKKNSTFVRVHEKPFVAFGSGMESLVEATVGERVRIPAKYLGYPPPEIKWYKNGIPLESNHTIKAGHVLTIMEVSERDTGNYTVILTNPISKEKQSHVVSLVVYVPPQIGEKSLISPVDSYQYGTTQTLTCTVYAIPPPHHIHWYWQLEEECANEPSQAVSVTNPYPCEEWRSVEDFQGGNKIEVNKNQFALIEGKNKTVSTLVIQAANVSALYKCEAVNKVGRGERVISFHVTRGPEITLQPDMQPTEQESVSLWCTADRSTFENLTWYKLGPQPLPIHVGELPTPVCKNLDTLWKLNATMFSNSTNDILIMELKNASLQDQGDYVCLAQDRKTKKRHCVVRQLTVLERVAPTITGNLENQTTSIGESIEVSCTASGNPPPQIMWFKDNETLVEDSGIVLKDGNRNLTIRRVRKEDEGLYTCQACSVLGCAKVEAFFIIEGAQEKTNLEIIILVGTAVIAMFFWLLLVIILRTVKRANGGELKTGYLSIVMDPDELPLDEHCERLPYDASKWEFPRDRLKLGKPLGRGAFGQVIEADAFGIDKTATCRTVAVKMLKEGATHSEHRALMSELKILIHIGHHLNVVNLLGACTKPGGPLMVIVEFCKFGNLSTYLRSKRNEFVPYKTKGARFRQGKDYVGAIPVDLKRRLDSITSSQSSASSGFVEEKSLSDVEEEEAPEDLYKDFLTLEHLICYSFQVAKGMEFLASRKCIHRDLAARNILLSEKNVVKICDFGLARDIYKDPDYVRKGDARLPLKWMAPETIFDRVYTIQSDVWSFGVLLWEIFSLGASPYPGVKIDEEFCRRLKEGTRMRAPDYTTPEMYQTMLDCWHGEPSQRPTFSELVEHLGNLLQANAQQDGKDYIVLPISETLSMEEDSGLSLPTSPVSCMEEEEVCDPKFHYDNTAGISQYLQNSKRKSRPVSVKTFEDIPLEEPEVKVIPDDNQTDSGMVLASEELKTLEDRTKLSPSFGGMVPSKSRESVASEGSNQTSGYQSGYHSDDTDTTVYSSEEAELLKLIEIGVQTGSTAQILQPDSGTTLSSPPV

IC50: 20 to 50 nM
Structure (SMILES): CNC(=O)c1cc(Cc2nnc(Nc3ccc(Cl)cc3)c3ccccc23)ccn1 [Example 1, 4-[4-(4-Chlorophenylamino)phthalazin-1-ylmethyl]pyridin-2-yl carboxylic acid methylamide]
